For five compounds, MIC90 results are on record in patent US9630977B2, “Cephalosporin derivatives and pharmaceutical compositions thereof” (Legochem Biosciences, Inc., priority 2011, dated 2017).

Converted amounts (≈) assume the structure as drawn.

For orientation: MIC90 means the lowest concentration that inhibits either 90% of growth or 90% of the strains tested, depending on the study.

Assay in all cases: In vitro antibacterial activity test (broth microdilution)
What all share (assay type): cell-based
Background: Dilution methods test growth across graded concentrations, often in twofold steps.

The test system of one experiment is E. cloacae β19. Conditions: Enterobacter cloacae, read-out: MIC90. Here is the method: (§1) To evaluate antibacterial activity of each of the compounds of Examples 1 to 68, in vitro antibacterial activity test was performed.
(§2) The in vitro antibacterial activity was evaluated by measuring MIC90 (ug/mL) of each of the compounds of Examples 1 to 68, which is defined as the lowest concentration of an antibiotic that will inhibit the visible growth of 90% of microorganisms after incubation as compared with a control group to which the antibiotic is not treated. MIC90 values were measured by the broth microdilution method developed by the Clinical and Laboratory Standards Institute (CLSI) (see CLSI M7-A5, Methods for Dilution Antimicrobial Susceptibility Test for Bacteria that Grow Aerobically-Fifth Edition (2000): CLSI, Villanova, Pa.).
(§3) In vitro antibacterial activity was measured with respect to the following 19 clinical isolates: M. catarrhalis; P. aeruginosa (5 strains); K. pneumoniae (6 strains); A. baumannii (3 strains); E. coli (2 strains); A. calcoaceticus; and E. cloacae.
(§4) Test compounds each (the cephalosporin derivative compounds prepared in Examples 1 to 68) were dissolved in DMSO at the concentration of 10,240 ug/mL, were diluted by two fold with DMSO, and then were diluted by twenty fold with sterilized distilled water. The final concentration in the antibacterial activity test was in the range of […] to 128 ug/mL, and the final concentration of DMSO used as an adjuvant was 2.5% (V/V).

The test system of a further experiment is K. pneumoniae β14. Conditions: Klebsiella pneumoniae, read-out: MIC90. Here is the method: as §1, §2, §3, §4
The test system of the next experiment is E. coli AG100. Conditions: Escherichia coli, AG100, E. coli AG100; read-out: MIC90. Here is the method: as §1, §2, §3, §4
For a further experiment, the system named is K. pneumoniae 2011E. Conditions: Klebsiella pneumoniae, 2011E, K. pneumoniae 2011E; read-out: MIC90. As to the method:
as §1, §2, §3, §4

Experiment [1] relates to A. calcoaceticus ATCC15473. Conditions: Acinetobacter calcoaceticus; A. calcoaceticus ATCC15473; read-out: MIC90. As to the method:
as §1, §2, §3, §4

Another experiment has as its system A. baumannii 52. Conditions: Acinetobacter baumannii; A. baumannii 52; read-out: MIC90. As to the method:
as §1, §2, §3, §4

A further experiment concerns P. aeruginosa 40. Conditions: Pseudomonas aeruginosa, 40, P. aeruginosa 40; read-out: MIC90. Here is the method: as §1, §2, §3, §4
The subject of a further experiment is M. catarrhalis 2524. Conditions: Moraxella catarrhalis; M. catarrhalis 2524; read-out: MIC90. As to the method: as §1, §2, §3, §4
A further experiment concerns A. baumannii 46. Conditions: Acinetobacter baumannii; A. baumannii 46; read-out: MIC90. As to the method:
as §1, §2, §3, §4

The subject of another experiment is A. baumannii 49. Conditions: Acinetobacter baumannii; A. baumannii 49; read-out: MIC90. Here is the method:
as §1, §2, §3, §4

A further experiment deals with E. coli β4. Conditions: Escherichia coli, read-out: MIC90. As to the method: as §1, §2, §3, §4
The subject of another experiment is P. aeruginosa 43. Conditions: Pseudomonas aeruginosa; P. aeruginosa 43; read-out: MIC90. As to the method: as §1, §2, §3, §4
For another experiment, the system named is P. aeruginosa 37. Conditions: Pseudomonas aeruginosa, 37, P. aeruginosa 37; read-out: MIC90. Here is the method:
as §1, §2, §3, §4

The subject of the next experiment is P. aeruginosa 1912E. Conditions: Pseudomonas aeruginosa, 1912E, read-out: MIC90. As to the method: as §1, §2, §3, §4
A further experiment deals with P. aeruginosa 6065Y. Conditions: Pseudomonas aeruginosa, read-out: MIC90. Here is the method:
as §1, §2, §3, §4

As for `Cn1cc(O)c(=O)cc1C(=O)NCCNc1c[n+](CC2=C(C(=O)[O-])N3C(=O)[C@@H](NC(=O)/C(=N\OC(C)(C)C(=O)O)c4csc(N)n4)C3SC2)cnc1N` (stereo partly drawn) [Compound 2], the MIC90 in the experiment on E. cloacae β19 is more than 128 µg/mL; with K. pneumoniae β14, 64 µg/mL (≈ 82.9 µM); in the experiment on E. coli AG100, 0.25 µg/mL (≈ 0.324 µM); in the experiment with K. pneumoniae 2011E it was 4 µg/mL (≈ 5.18 µM); in experiment [1] it was 2 µg/mL (≈ 2.59 µM); with A. baumannii 52 it was more than 128 µg/mL. Moreover, the MIC90 was 4 µg/mL (≈ 5.18 µM) with P. aeruginosa 40; 1 µg/mL (≈ 1.3 µM) in the experiment with M. catarrhalis 2524; 4 µg/mL (≈ 5.18 µM) with A. baumannii 46; more than 128 µg/mL in the experiment on A. baumannii 49; 4 µg/mL (≈ 5.18 µM) with E. coli β4; 8 µg/mL (≈ 10.4 µM) in the experiment on P. aeruginosa 43. Moreover, the MIC90 with P. aeruginosa 37 was 4 µg/mL (≈ 5.18 µM); in the experiment on P. aeruginosa 1912E, 2 µg/mL (≈ 2.59 µM); with P. aeruginosa 6065Y it was 16 µg/mL (≈ 20.7 µM).
With `C[C@H](O/N=C(\C(=O)N[C@@H]1C(=O)N2C(C(=O)[O-])=C(C[n+]3cnc(N)c(NCCNC(=O)c4cc(=O)c(O)cn4O)c3)CSC12)c1csc(N)n1)C(=O)O` (stereo partly drawn) [Compound 3], the MIC90 was 2 µg/mL (≈ 2.63 µM) in the experiment on E. cloacae β19; 64 µg/mL (≈ 84.2 µM) with K. pneumoniae β14; less than 0.0625 µg/mL with E. coli AG100; 1 µg/mL (≈ 1.32 µM) in the experiment with K. pneumoniae 2011E; 0.25 µg/mL (≈ 0.329 µM) in [1]; 128 µg/mL (≈ 168 µM) in the experiment on A. baumannii 52. Besides, the MIC90 is 0.125 µg/mL (≈ 0.165 µM) with P. aeruginosa 40; 2 µg/mL (≈ 2.63 µM) with M. catarrhalis 2524; 2 µg/mL (≈ 2.63 µM) in the experiment with A. baumannii 46; more than 128 µg/mL in the experiment on A. baumannii 49; 1 µg/mL (≈ 1.32 µM) in the experiment on E. coli β4; 0.25 µg/mL (≈ 0.329 µM) in the experiment with P. aeruginosa 43. Moreover, the figures for the MIC90 in the experiment on P. aeruginosa 37, in the experiment with P. aeruginosa 1912E and in the experiment on P. aeruginosa 6065Y were 1 µg/mL (≈ 1.32 µM), 32 µg/mL (≈ 42.1 µM) and 0.5 µg/mL (≈ 0.658 µM), respectively.
Turning to `CN(CCNc1c[n+](CC2=C(C(=O)[O-])N3C(=O)[C@@H](NC(=O)/C(=N\OC(C)(C)C(=O)O)c4csc(N)n4)C3SC2)cnc1N)C(=O)c1ccc(O)c(O)c1` (stereo partly drawn) [Compound 27], the MIC90 was 16 µg/mL (≈ 20.8 µM) in the experiment on E. cloacae β19; 32 µg/mL (≈ 41.5 µM) with K. pneumoniae β14; 1 µg/mL (≈ 1.3 µM) with E. coli AG100; 2 µg/mL (≈ 2.59 µM) in the experiment on K. pneumoniae 2011E; 4 µg/mL (≈ 5.19 µM) in [1]; more than 128 µg/mL in the experiment with A. baumannii 52. The MIC90 with P. aeruginosa 40 was 2 µg/mL (≈ 2.59 µM); in the experiment on M. catarrhalis 2524, 0.25 µg/mL (≈ 0.324 µM); with A. baumannii 46, 16 µg/mL (≈ 20.8 µM); in the experiment on A. baumannii 49, more than 128 µg/mL; in the experiment with E. coli β4 it was 2 µg/mL (≈ 2.59 µM); with P. aeruginosa 43 it was 1 µg/mL (≈ 1.3 µM). The MIC90 in the experiment on P. aeruginosa 37 was determined as 2 µg/mL (≈ 2.59 µM); with P. aeruginosa 1912E it was 1 µg/mL (≈ 1.3 µM); in the experiment with P. aeruginosa 6065Y it was 4 µg/mL (≈ 5.19 µM).
Regarding `CC(C)(O/N=C(\C(=O)N[C@@H]1C(=O)N2C(C(=O)[O-])=C(C[n+]3cnc(N)c(NC(=O)CCNC(=O)c4ccc(O)c(O)c4)c3)CSC12)c1csc(N)n1)C(=O)O` (stereo partly drawn) [Compound 28], the MIC90 was 128 µg/mL (≈ 163 µM) in the experiment with E. cloacae β19; 64 µg/mL (≈ 81.6 µM) in the experiment with K. pneumoniae β14; more than 128 µg/mL with E. coli AG100; 8 µg/mL (≈ 10.2 µM) in the experiment on K. pneumoniae 2011E; 1 µg/mL (≈ 1.27 µM) in experiment [1]; 16 µg/mL (≈ 20.4 µM) in the experiment on A. baumannii 52. In addition, the MIC90 in the experiment with P. aeruginosa 40 was 16 µg/mL (≈ 20.4 µM); in the experiment with M. catarrhalis 2524, 8 µg/mL (≈ 10.2 µM); in the experiment on A. baumannii 46, 8 µg/mL (≈ 10.2 µM); in the experiment on A. baumannii 49 it was more than 128 µg/mL; in the experiment on E. coli β4, 8 µg/mL (≈ 10.2 µM); with P. aeruginosa 43, 4 µg/mL (≈ 5.1 µM). Moreover, the MIC90 with P. aeruginosa 37 is 8 µg/mL (≈ 10.2 µM); in the experiment on P. aeruginosa 1912E it was 32 µg/mL (≈ 40.8 µM); with P. aeruginosa 6065Y, 16 µg/mL (≈ 20.4 µM).
For the compound `CC(C)(O/N=C(\C(=O)N[C@@H]1C(=O)N2C(C(=O)[O-])=C(C[n+]3cnc(N)c(NCCCNC(=O)c4ccc(O)c(O)c4)c3)CSC12)c1csc(N)n1)C(=O)O` (stereo partly drawn) [Compound 31], the MIC90 in the experiment on E. cloacae β19 was 16 µg/mL (≈ 20.8 µM); in the experiment on K. pneumoniae β14 it was 32 µg/mL (≈ 41.5 µM); in the experiment with E. coli AG100, 0.25 µg/mL (≈ 0.324 µM); in the experiment on K. pneumoniae 2011E, 8 µg/mL (≈ 10.4 µM); in [1] it was 1 µg/mL (≈ 1.3 µM); in the experiment with A. baumannii 52, 64 µg/mL (≈ 83 µM). Besides, the MIC90 with P. aeruginosa 40 was 2 µg/mL (≈ 2.59 µM); in the experiment on M. catarrhalis 2524, 1 µg/mL (≈ 1.3 µM); with A. baumannii 46, 4 µg/mL (≈ 5.19 µM); with A. baumannii 49, 32 µg/mL (≈ 41.5 µM); in the experiment with E. coli β4 it was 8 µg/mL (≈ 10.4 µM); in the experiment with P. aeruginosa 43, 1 µg/mL (≈ 1.3 µM). The MIC90 in the experiment with P. aeruginosa 37 stood at 1 µg/mL (≈ 1.3 µM); in the experiment with P. aeruginosa 1912E it was 1 µg/mL (≈ 1.3 µM); with P. aeruginosa 6065Y it was 4 µg/mL (≈ 5.19 µM).
